Results on ten compounds are retold here after US20250136577A1, “HETEROCYCLIC DERIVATIVES AS MALT1 INHIBITORS” (C4X Discovery Limited, priority 2022, published 2025).

For this assay, the target named is FL hMALT1 enzyme (Homo sapiens (Human), UniProt Q9UDY8). Briefly: MALT1 Protease Assay 2 (Assay 2), higher sensitivity, cleavage of fluorogenic tetrapeptide substrate. Format: biochemical. The note with it: FL hMALT1 1-10 nM, Ac-LVSR-AMC 100 μM, 0.7 M sodium citrate, 30 min preincubation, 60 min read. On the procedure:
MALT1 Protease Assay 2 (Assay 2)
MALT1 protease activity was assessed in vitro by measuring the cleavage of a fluorogenic tetrapeptide substrate.
For a higher sensitivity assay, commercially available FL hMALT1 enzyme (Abcam, 1-10 nM) was incubated with substrate (Ac-LVSR-AMC, 100 μM) in reaction buffer comprising 50 mM HEPES (pH7.0), 25 mM KCl, 0.1% (v/v) CHAPS, 1 mM TCEP and 0.7 M sodium citrate.
Test compounds dissolved in DMSO were dispensed into assay plates (384-well, black, shallow ProxiPlates). 7 μl enzyme solution was added and incubated at room temperature for 30 minutes to allow compound binding to occur. 2 μl substrate solution was then added and the fluorescence (excitation 360 nm, emission 460 nm) read every 15 minutes using a suitable plate reader. Final assay DMSO concentration was 1%. Linearity over 60 minutes was confirmed, and assay signal was calculated by subtracting raw counts at time 0 from those at 60 minutes. % inhibition was calculated for each well, using no enzyme for 100% inhibition controls and no compound for 0% inhibition controls. IC50 values were calculated using GraphPad Prism using a 4-parameter non-linear regression curve fit.

Each structure is given as a SMILES string. pIC50: −log10 of the molar value.

Chain of FL hMALT1 enzyme (Q9UDY8 whole entry): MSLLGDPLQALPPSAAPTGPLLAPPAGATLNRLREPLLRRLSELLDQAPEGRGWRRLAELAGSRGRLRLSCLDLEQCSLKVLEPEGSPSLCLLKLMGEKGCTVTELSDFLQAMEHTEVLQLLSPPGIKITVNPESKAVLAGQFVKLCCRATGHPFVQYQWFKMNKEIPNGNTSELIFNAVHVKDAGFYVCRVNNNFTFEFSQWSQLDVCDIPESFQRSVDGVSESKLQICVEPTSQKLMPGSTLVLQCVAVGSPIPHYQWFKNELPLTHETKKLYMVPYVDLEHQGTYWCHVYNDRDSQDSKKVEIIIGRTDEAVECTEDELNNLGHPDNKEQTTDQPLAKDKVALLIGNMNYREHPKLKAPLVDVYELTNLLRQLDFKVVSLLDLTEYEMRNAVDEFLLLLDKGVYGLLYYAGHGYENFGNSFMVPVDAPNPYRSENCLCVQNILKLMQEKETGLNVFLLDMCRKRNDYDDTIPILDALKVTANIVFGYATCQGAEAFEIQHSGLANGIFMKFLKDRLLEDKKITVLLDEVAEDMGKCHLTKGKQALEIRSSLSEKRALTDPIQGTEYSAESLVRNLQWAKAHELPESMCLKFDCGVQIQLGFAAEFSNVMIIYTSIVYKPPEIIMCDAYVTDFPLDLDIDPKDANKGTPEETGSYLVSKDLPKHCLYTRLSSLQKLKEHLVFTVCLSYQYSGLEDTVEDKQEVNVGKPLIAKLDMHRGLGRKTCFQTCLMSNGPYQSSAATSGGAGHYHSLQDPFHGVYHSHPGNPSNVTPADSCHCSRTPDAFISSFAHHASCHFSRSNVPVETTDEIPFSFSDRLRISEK

As for `Cc1ncc2c(c1Br)OC(C(F)(F)F)CN2C(=O)Nc1cnc(-n2nccn2)c(Cl)c1` (single isomer, unassigned) [Example 42, 8-Bromo-N-(5-chloro-6-(2H-1,2,3-triazol-2-yl)pyridin-3-yl)-7-methyl-2-(trifluoromethyl)-2,3-dihydro-4H-pyrido[4,3-b][1,4]oxazine-4-carboxamide], the pIC50 was 5.47.
For `CC1CN(C(=O)Nc2cnc(-n3nccn3)c(Cl)c2)c2cncc(Br)c2O1` (single isomer, unassigned) [Example 44, 8-Bromo-N-(5-chloro-6-(2H-1,2,3-triazol-2-yl)pyridin-3-yl)-2-methyl-2,3-dihydro-4H-pyrido[4,3-b][1,4]oxazine-4-carboxamide], the pIC50 was 6.48.
In the case of `CC1CN(C(=O)Nc2cnc(-n3nccn3)c(Cl)c2)c2cncc(Br)c2O1` (single isomer, unassigned) [Example 45, 8-Bromo-N-(5-chloro-6-(2H-1,2,3-triazol-2-yl)pyridin-3-yl)-2-methyl-2,3-dihydro-4H-pyrido[4,3-b][1,4]oxazine-4-carboxamide] it was 6.70.
Next, `O=C(Nc1cnc(-n2nccn2)c(Cl)c1)N1CC(C2CC2)Oc2c(Br)cncc21` (single isomer, unassigned) [Example 50, 8-Bromo-N-(5-chloro-6-(2H-1,2,3-triazol-2-yl)pyridin-3-yl)-2-cyclopropyl-2,3-dihydro-4H-pyrido[4,3-b][1,4]oxazine-4-carboxamide]: 6.62; `O=C(Nc1cnc(-n2nccn2)c(Cl)c1)N1CC(C2CC2)Oc2c(Br)cncc21` (single isomer, unassigned) [Example 51, 8-Bromo-N-(5-chloro-6-(2H-1,2,3-triazol-2-yl)pyridin-3-yl)-2-cyclopropyl-2,3-dihydro-4H-pyrido[4,3-b][1,4]oxazine-4-carboxamide]: 6.60.
In the case of `Cc1ncc2c(c1C#N)OC(C(F)(F)F)CN2C(=O)Nc1cnc(-n2nccn2)c(Cl)c1` (single isomer, unassigned) [Example 52, N-(5-Chloro-6-(2H-1,2,3-triazol-2-yl)pyridin-3-yl)-8-cyano-7-methyl-2-(trifluoromethyl)-2,3-dihydro-4H-pyrido[4,3-b][1,4]oxazine-4-carboxamide] it was 5.12; in that of `N#Cc1cncc2c1OC(C(F)(F)F)CN2C(=O)Nc1cnc(-n2nccn2)c(Cl)c1` (single isomer, unassigned) [Example 54, N-(5-Chloro-6-(2H-1,2,3-triazol-2-yl)pyridin-3-yl)-8-cyano-2-(trifluoromethyl)-2,3-dihydro-4H-pyrido[4,3-b][1,4]oxazine-4-carboxamide], 5.09; in that of `COc1cncc2c1OC(C(F)(F)F)CN2C(=O)Nc1cnc(-n2nccn2)c(Cl)c1` (single isomer, unassigned) [Example 56, N-(5-Chloro-6-(2H-1,2,3-triazol-2-yl)pyridin-3-yl)-8-methoxy-2-(trifluoromethyl)-2,3-dihydro-4H-pyrido[4,3-b][1,4]oxazine-4-carboxamide], 5.29.
Compound `COc1cncc2c1OC(C(F)(F)F)CN2C(=O)Nc1cnc(-n2nccn2)c(Cl)c1` (single isomer, unassigned) [Example 57, N-(5-Chloro-6-(2H-1,2,3-triazol-2-yl)pyridin-3-yl)-8-methoxy-2-(trifluoromethyl)-2,3-dihydro-4H-pyrido[4,3-b][1,4]oxazine-4-carboxamide] showed a pIC50 of 6.77.
In the case of `Cc1ncc2c(c1C#N)OC(C(F)(F)F)CN2C(=O)Nc1cnc(OC(F)F)c(Cl)c1` (single isomer, unassigned) [Example 60, N-(5-Chloro-6-(difluoromethoxy)pyridin-3-yl)-8-cyano-7-methyl-2-(trifluoromethyl)-2,3-dihydro-4H-pyrido[4,3-b][1,4]oxazine-4-carboxamide] it was 5.42.
